These results are taken from US20250332173A1, “COMPOUNDS AND METHODS FOR MODULATING NUCLEIC ACID SPLICING” (REMIX THERAPEUTICS INC., priority 2021, published 2025).

What all share (type): cell-based, human
One test relates to MYB. The test is described as follows: HiBiT protein abundance assay, MYB HiBiT K562 cell line. To be noted: HiBiT K562 cell line, 24 hours, top dose 10 μM; read-out: Effect on protein abundance, MYB (IC50 category). In a few lines:
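K562 knock-in lines with endogenous HiBiT-tagged target, 10,000 cells/well in IMDM + FBS, treated 24 h at 37° C with 10-point 3-fold dilutions (top 10 μM final; DMSO ≤0.25%). Lytic Nano-Glo HiBiT luminescence normalized to untagged K562 baseline and DMSO controls; IC50 = concentration giving 50% abundance via four-parameter fit.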
(In general: HiBiT is a short tag that completes a luciferase, so light tracks the accessible tagged protein.)

The next test deals with Target C. Kind of test: HiBiT protein abundance assay, Target C (Promega Nano-Glo HiBiT Lytic Detection System, knock-in K562 cell line). The conditions noted are these: Homo sapiens, K562, 24 h, HiBiT K562 cell line, 24 hours, top dose 10 μM; read-out: Effect on protein abundance, Target C (IC50 category). In a few lines: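 Knock-in K562 cells carrying HiBiT-tagged Target C, 10,000 per well, treated 24 h at 37 °C with 10-point threefold dilutions (top 10 μM final, ≤0.25% DMSO). Lytic HiBiT luminescence read; response normalised to unmodified K562 and DMSO controls, four-parameter fit interpolated at 50% for IC50.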

The next test concerns MYB mRNA. The test is described as follows: RT-qPCR splicing assay, MYB canonical junction (CJ) and alternative junction (AJ) mRNA. To be noted: Homo sapiens; for AC50: increase in MYB alternative junction (AJ) mRNA, read-out: MYB AJ AC50. In a few lines:
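24 h treatment, 37 °C/5% CO2; A673 or K562; 11-pt 3-fold series, top 10 uM final; DMSO ≤0.25%. Cell lysis with DNase I, then 1-step RT-qPCR. Housekeeping normalization: PPIA (A673), GAPDH or GUSB (K562).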
On the technique in general: Quantitative PCR measures a nucleic acid by following its amplification.

Where [1] appears, read: Table 5 panel, canonical junction qPCR, compound concentration having 50% response in CJ decrease, read-out: MYB IC50 (decrease in CJ mRNA levels).
The mark [2] stands for this setting: decrease in MYB canonical junction (CJ) mRNA, RT-qPCR, read-out: MYB CJ IC50.

Where two headings read alike, the source gives them in different places.

One may read the IC50 as the concentration needed to halve the response being measured. By AC50 is commonly meant the concentration at which the activity in the assay is half-maximal. On to `Cc1cn2cc(-c3cc(F)c4c(=O)n(C5CCOC5)cnc4c3)cc(C#N)c2n1` (centres unmarked) [Compound 366, 6-[5-fluoro-4-oxo-3-(oxolan-3-yl)quinazolin-7-yl]-2-methylimidazo[1,2-a]pyridine-8-carbonitrile], for which the IC50 in the test with MYB, in the test with Target C, in the test on MYB mRNA (setting [1]) and in the test on MYB mRNA (setting [2]) was 1000 to 10000 nM throughout. For the same molecule, the AC50 in the test with MYB mRNA (RT-qPCR) was 1000 to 10000 nM.

Consider `Cc1cn2cc(-c3cc(F)c4c(=O)n(C5CCOCC5)cnc4c3)cc(C#N)c2n1` [Compound 367, 6-[5-fluoro-3-(oxan-4-yl)-4-oxoquinazolin-7-yl]-2-methylimidazo[1,2-a]pyridine-8-carbonitrile], for which the IC50 with MYB, in the test with Target C, with MYB mRNA (setting [1]) and in the test on MYB mRNA (setting [2]) was 100 to 1000 nM each time. In addition, in the test with MYB mRNA (RT-qPCR), the AC50 lay in the range of 100 to 1000 nM.

For `Cc1cn2nc(-c3ccc4c(=O)n([C@H]5CCNC6(CC6)C5)ncc4c3)cc(C)c2n1` [Compound 369, 2-[(7S)-4-azaspiro[2.5]octan-7-yl]-6-{2,8-dimethylimidazo[1,2-b]pyridazin-6-yl}phthalazin-1-one], the IC50 was 1000 to 10000 nM in the test on MYB, 1000 to 10000 nM in the test on Target C, less than 100 nM in the test with MYB mRNA (setting [1]) and less than 100 nM with MYB mRNA (setting [2]). Also, the AC50 in the test with MYB mRNA (RT-qPCR) is less than 100 nM.

With `Cc1cn2cc(-c3cc(F)c4c(=O)n(C5CCNCC5)ccc4c3)cc(F)c2n1` [Compound 370], the IC50 with MYB, with Target C, in the test with MYB mRNA (setting [1]) and in the test with MYB mRNA (setting [2]) was less than 100 nM in each case. In addition, in the test on MYB mRNA (RT-qPCR), the AC50 is less than 100 nM.

Turning to `Cc1cn2nc(-c3ccc4c(=O)n([C@H]5CCNC[C@H]5F)cnc4c3)cc(C)c2n1` [Compound 372], the IC50 in the test with MYB lay in the range of 100 to 1000 nM; in the test with Target C, 1000 to 10000 nM; in the test with MYB mRNA (setting [1]) it was 100 to 1000 nM; in the test on MYB mRNA (setting [2]) it was 100 to 1000 nM. In addition, the AC50 in the test with MYB mRNA (RT-qPCR) is 100 to 1000 nM.

For `Cc1cc(-c2ccc3c(=O)n(C4CCNC5(COC5)C4)cnc3c2)cc2cn(C)nc12` (centres unmarked) [Compound 375], the IC50 in the test with MYB, in the test with Target C, with MYB mRNA (setting [1]) and in the test with MYB mRNA (setting [2]) was 1000 to 10000 nM each time. In addition, the AC50 in the test with MYB mRNA (RT-qPCR) was in the range of 1000 to 10000 nM.

In the case of `Cc1cc(-c2ccc3c(=O)n([C@@H]4CCNC[C@H]4F)ncc3c2)cc2cn(C)nc12` [Compound 378], the IC50 with MYB, with Target C, in the test with MYB mRNA (setting [1]) and in the test on MYB mRNA (setting [2]) was 1000 to 10000 nM throughout. Moreover, the AC50 in the test on MYB mRNA (RT-qPCR) lay within 1000 to 10000 nM.

`Cc1cn2nc(-c3ccc4c(=O)n([C@@H]5CCNC[C@H]5F)ncc4c3)cc(C)c2n1` [Compound 379]: the IC50 in the test on MYB, with Target C, with MYB mRNA (setting [1]) and in the test with MYB mRNA (setting [2]) was 100 to 1000 nM in each case. Besides, the AC50 in the test with MYB mRNA (RT-qPCR) was 100 to 1000 nM.

Consider `Cc1cn2nc(-c3cc(F)c4c(=O)n(C5CCNC6(CC6)C5)ccc4c3)cc(C)c2n1` (centres unmarked) [Compound 380, 6-(2,8-dimethylimidazo[1,2-b]pyridazin-6-yl)-8-fluoro-2-(4-azaspiro[2.5]octan-7-yl)isoquinolin-1(2H)-one], for which the IC50 in the test on MYB, with Target C, in the test with MYB mRNA (setting [1]) and in the test with MYB mRNA (setting [2]) was less than 100 nM throughout. Also, the AC50 in the test with MYB mRNA (RT-qPCR) is less than 100 nM.

For the molecule `Cc1cn2nc(-c3ccc4c(=O)n(C5CCNCC5)cc(C)c4c3)cc(C)c2n1` [Compound 381, 6-{2,8-dimethylimidazo[1,2-b]pyridazin-6-yl}-4-methyl-2-(piperidin-4-yl)isoquinolin-1-one], the 50% inhibitory concentration (IC50) in the test on MYB was less than 100 nM; in the test with Target C, 100 to 1000 nM; in the test on MYB mRNA (setting [1]), less than 100 nM; in the test with MYB mRNA (setting [2]), less than 100 nM. Also, the half-maximal activity concentration (AC50) with MYB mRNA (RT-qPCR) is less than 100 nM.

Turning to `Cc1cn2cc(-c3cc(F)c4c(=O)n(C5CCNCC5)ccc4c3)cc(C#N)c2n1` [Compound 383, 6-[8-fluoro-1-oxo-2-(piperidin-4-yl)isoquinolin-6-yl]-2-methylimidazo[1,2-a]pyridine-8-carbonitrile], the IC50 with MYB was less than 100 nM; with Target C, 100 to 1000 nM; in the test with MYB mRNA (setting [1]) it was less than 100 nM; in the test on MYB mRNA (setting [2]), less than 100 nM. For the same molecule, the AC50 with MYB mRNA (RT-qPCR) is less than 100 nM.

In the case of `Cc1cn2nc(-c3ccc4c(=O)n(C5CCNC6(CC6)C5)ccc4c3)cc(C)c2n1` (centres unmarked) [Compound 384], the IC50 in the test with MYB, with Target C, in the test on MYB mRNA (setting [1]) and with MYB mRNA (setting [2]) was less than 100 nM each time. The AC50 in the test on MYB mRNA (RT-qPCR) was less than 100 nM.

As to `Cc1cn2nc(-c3cc(C#N)c4c(=O)n(C5CCNC6(CC6)C5)ccc4c3)cc(C)c2n1` (centres unmarked) [Compound 387], the IC50 with MYB, in the test on Target C, in the test on MYB mRNA (setting [1]) and with MYB mRNA (setting [2]) was less than 100 nM each time. For the same molecule, the AC50 with MYB mRNA (RT-qPCR) was less than 100 nM.

As to `Cc1cn2nc(-c3cc(Cl)c4c(=O)n(C5CCNCC5)ccc4c3)cc(C)c2n1` [Compound 390, 8-chloro-6-{2,8-dimethylimidazo[1,2-b]pyridazin-6-yl}-2-(piperidin-4-yl)isoquinolin-1-one; trifluoroacetaldehyde], the 50% inhibitory concentration (IC50) with MYB, in the test with Target C, in the test with MYB mRNA (setting [1]) and with MYB mRNA (setting [2]) was less than 100 nM each time. In the test on MYB mRNA (RT-qPCR), the AC50 is less than 100 nM.

For the molecule `Cc1cn2nc(-c3cc(O)c4c(=O)n(C5CCNCC5)ccc4c3)cc(C)c2n1` [Compound 391, 6-(2,8-dimethylimidazo[1,2-b]pyridazin-6-yl)-8-hydroxy-2-(piperidin-4-yl)isoquinolin-1(2H)-one], the IC50 in the test with MYB, in the test on Target C, in the test on MYB mRNA (setting [1]) and with MYB mRNA (setting [2]) was less than 100 nM throughout. Further, the AC50 in the test with MYB mRNA (RT-qPCR) is less than 100 nM.

With `CC(=O)c1cc(-c2cc(F)c3c(=O)n(C4CCNCC4)ccc3c2)cn2cc(C)nc12` [Compound 393, 6-{8-acetyl-2-methylimidazo[1,2-a]pyridin-6-yl}-8-fluoro-2-(piperidin-4-yl)isoquinolin-1-one 2,2,2-trifluoroacetate], the half-maximal inhibitory concentration (IC50) is less than 100 nM in the test with MYB, 100 to 1000 nM in the test on Target C, 100 to 1000 nM with MYB mRNA (setting [1]) and 100 to 1000 nM in the test with MYB mRNA (setting [2]). In addition, the AC50 with MYB mRNA (RT-qPCR) is 100 to 1000 nM.

As to `Cn1cc2cc(-c3cc(F)c4c(=O)n(C5CCNCC5)ccc4c3)cc(C#N)c2n1` [Compound 394, 5-(8-fluoro-1-oxo-2-(piperidin-4-yl)-1,2-dihydroisoquinolin-6-yl)-2-methyl-2H-indazole-7-carbonitrile], the IC50 in the test with MYB, in the test on Target C, with MYB mRNA (setting [1]) and in the test on MYB mRNA (setting [2]) was less than 100 nM in each case. Besides, the AC50 in the test with MYB mRNA (RT-qPCR) is less than 100 nM.

As for `COc1cc(-c2cc(C)c3nc(C)cn3n2)cc2ccn(C3CCNCC3)c(=O)c12` [Compound 399, 6-{2,8-dimethylimidazo[1,2-b]pyridazin-6-yl}-8-methoxy-2-(piperidin-4-yl)isoquinolin-1-one], the IC50 in the test with MYB, with Target C, with MYB mRNA (setting [1]) and in the test with MYB mRNA (setting [2]) was 100 to 1000 nM throughout. The AC50 in the test on MYB mRNA (RT-qPCR) is 100 to 1000 nM.

With `Cc1cn2nc(-c3cc(F)c4c(=O)n(C5CCN(C)CC5)ccc4c3)cc(C)c2n1` [Compound 400, 6-(2,8-dimethylimidazo[1,2-b]pyridazin-6-yl)-8-fluoro-2-(1-methylpiperidin-4-yl)isoquinolin-1(2H)-one], the IC50 in the test on MYB, with Target C, in the test on MYB mRNA (setting [1]) and with MYB mRNA (setting [2]) was less than 100 nM in each case. Moreover, in the test with MYB mRNA (RT-qPCR), the AC50 is less than 100 nM.

As to `CCN1CCC(n2ccc3cc(-c4cc(C)c5nc(C)cn5n4)ccc3c2=O)CC1` [Compound 402, 6-{2,8-dimethylimidazo[1,2-b]pyridazin-6-yl}-2-(1-ethylpiperidin-4-yl)isoquinolin-1-one], the 50% inhibitory concentration (IC50) in the test with MYB was less than 100 nM; with Target C, 100 to 1000 nM; with MYB mRNA (setting [1]), less than 100 nM; with MYB mRNA (setting [2]) it was 100 to 1000 nM. For the same molecule, the AC50 in the test with MYB mRNA (RT-qPCR) was less than 100 nM.

For `Cc1cn2cc(-c3ccc4c(=O)n([C@H]5CCCNC5)ccc4c3)cc(F)c2n1` [Compound 404, 6-{8-fluoro-2-methylimidazo[1,2-a]pyridin-6-yl}-2-[(3S)-piperidin-3-yl]isoquinolin-1-one], the IC50 lay within 100 to 1000 nM with MYB, 1000 to 10000 nM with Target C, 1000 to 10000 nM with MYB mRNA (setting [1]) and 1000 to 10000 nM in the test on MYB mRNA (setting [2]). For the same molecule, the half-maximal activity concentration (AC50) with MYB mRNA (RT-qPCR) lay within 1000 to 10000 nM.

Consider `Cc1cn2cc(-c3cc(S(C)(=O)=O)c4c(=O)n(C5CCNCC5)ccc4c3)cc(F)c2n1` [Compound 409, 6-(8-fluoro-2-methylimidazo[1,2-a]pyridin-6-yl)-8-(methylsulfonyl)-2-(piperidin-4-yl)isoquinolin-1(2H)-one], for which the IC50 with MYB, in the test with Target C, with MYB mRNA (setting [1]) and in the test with MYB mRNA (setting [2]) was greater than 10000 nM each time. For the same molecule, the AC50 in the test with MYB mRNA (RT-qPCR) was greater than 10000 nM.
